In patent US9732226B2, “Azo compound, ink containing azo compound, and display and electronic paper containing the ink” (MITSUBISHI CHEMICAL CORPORATION, priority 2012, dated 2017):
Values after ≈ are worked out from the molar mass of the structure shown.

Experiments:
Format in all cases: physicochemical
[1] = Solubility C in n-decane at 5° C. (saturated solution, absorbance); settings: for solubility at 24 h: organic solvent or mixture, thermodynamic from solid, saturation solubility in n-decane at 5° C.; for ε · C / εC: product of ε and solubility C in n-decane at 5° C.; for C: solubility in n-decane at 5° C.
Method: <Method for Measurement of Solubility C>
The solubility C of Example Compounds 1 to 4 and Comparative Example Compound in n-decane solution was measured as follows.
The compound was added to the solvent until the undissolved residue remained, and ultrasonically treated at 30° C. for 30 minutes. After left at 5° C. for 24 hours, this was centrifuged and filtered through a 0.1 μm-filter using an ultracompact centrifuge (centrifugal force, 5200×g). The resultant saturated solution was diluted to have a suitable concentration, and using a quartz cell having an optical length of 10 mm, the absorption spectrum thereof was measured with Hitachi Spectrophotometer U-4100. From the relationship between the absorbance at the absorption maximum wavelength λmax (nm) and the previously-determined molar absorbance coefficient ε([…]) thereof, the concentration of each compound was determined, and the solubility C (mol·L^−1) at 5° C. and εC (cm^−1) thereof were calculated.

[2] = Absorption spectrum of n-decane solution (absorption maximum wavelength, molar absorbance coefficient, color); settings: for Maximum Absorption Wavelength: 1 mg in 100 ml n-decane, quartz cell; for Color Tone: color of the solution of the compound in n-decane; for ε (molar absorbance coefficient) / ε / λmax: n-decane solution; for ε (molar absorbance coefficient): at absorption maximum wavelength; for ε / λmax: same manner as for Example Compound 1
Method: <Method for Measurement of Absorption Maximum Wavelength λMax, Molar Absorbance Coefficient ε>
One mg of each of Example Compounds 1 to 4 and Comparative Example Compound was dissolved in 100 ml of n-decane solution to prepare a solution thereof, and using a quartz cell, the absorption spectrum thereof was measured with Hitachi Spectrophotometer U-4100. The resultant spectrum of the compound gave the absorption maximum wavelength λmax (nm) and the molar absorbance coefficient ε(L·mol^−1·cm^−1) thereof.

[3] = Solubility of solvent in water; settings: pure water, thermodynamic from solid, 25° C.
Method: (§1) The solvent was sandwiched between opposed parallel-plate ITO electrode-attached glass substrates having an electrode spacing of 50 μm, and using LCR Meter ZN2371 (manufactured by NF Corporation), the equivalent parallel capacitance thereof was measured at a measurement temperature of 22° C. and at a frequency of 1 kHz, given a test signal voltage of 5 V. Through calculation according to the following equation, the relative permittivity of the solvent was determined. Relative Permittivity=(equivalent parallel capacitance)×(electrode spacing)/(electrode area)/vacuum permittivity(ε0) <Method for Measurement of Solubility of Solvent in Water>
30 g of pure water and 8 g of the solvent were put into a 110 ml-vial, and shaken in a thermostat bath at 25° C. at 200 shake/min for 4 hours. After thus shaken, the liquid was centrifuged (6000×g, 5 minutes), the aqueous layer was sampled, and the concentration of the dissolved solvent was quantified through gas chromatography.
For a mixed solvent comprising two or more different types of solvents, the solubility in water was determined by multiplying the solubility in water of each solvent constituting the mixed solvent by the molar fraction of each solvent, followed by totaling the resultant data. […]

[4] = Relative permittivity of solvent; settings: 22° C., measurement frequency 1 kHz
Method: as §1, with “<Method for Measurement of Relative Permittivity of Solvent> The” for “The”

| Compound | solubility at 24 h [1] | ε · C [1] | Maximum Absorption Wavelength [2] | Color Tone [2] | ε (molar absorbance coefficient) [2] | εC [1] | C [1] | ε [2] | λmax [2] | solubility at 4 h [3] | relative permittivity [4] |
| --- | --- | --- | --- | --- | --- | --- | --- | --- | --- | --- | --- |
| C=CCn1c(N=Nc2ccc(N(CCC)CCC)cc2NC(C)=O)nc(C#N)c1C#N [Comparative Example Compound, reference compound] | ≤ 0.01 mM | 10 or less cm^−1 | 512 nm | red | 34,000 L · mol^−1 · cm^−1 |  |  |  |  |  |  |
| CCCCC(CC)COC(=O)c1cc(C#N)c(N=Nc2ccc(N(CC(CC)CCCC)CC(CC)CCCC)cc2NC(C)=O)c(C#N)c1 (stereo not drawn) [Example Compound 4] | 75 mM (≈ 51.4 mg/mL) | 6,000 cm^−1 | 590 nm | violet | 80,000 L · mol^−1 · cm^−1 |  |  |  |  |  |  |
| CCCCC(CC)CN(CC(CC)CCCC)c1ccc(N=Nc2snc(CC)c2C#N)c(C)c1 (stereo not drawn) [Red Compound A] |  |  |  |  |  | 3900 cm⁻¹ | 0.086 mol/L | 4600 L/mol/cm | 530 nm |  |  |
| CCCCCCCCCC [n-decane] |  |  |  |  |  |  |  |  |  | ≤ 1 µg/mL | 2.0 |
| CCCCC(CC)COC(=O)c1cc(C#N)c(N=Nc2ccc(N(CC(CC)CCCC)CC(CC)CCCC)cc2NC(=O)CC)c(C#N)c1 (stereo not drawn) [Example Compound 2] | 160 mM (≈ 112 mg/mL) | 13,000 cm^−1 | 591 nm | violet | 80,000 L · mol^−1 · cm^−1 |  |  |  |  |  |  |
| CCCCC(=O)Nc1cc(N(CC(CC)CCCC)CC(CC)CCCC)ccc1N=Nc1c(C#N)cc(C(F)(F)F)cc1C#N (stereo not drawn) [Example Compound 3] | 350 mM (≈ 224 mg/mL) | 26,000 cm^−1 | 585 nm | violet | 75,000 L · mol^−1 · cm^−1 |  |  |  |  |  |  |
| CCCCC(CC)CN(CC(CC)CCCC)c1ccc(N=Nc2c(C#N)cc(C(F)(F)F)cc2C#N)c(NC(C)=O)c1 (stereo not drawn) [Example Compound 1] | 20 mM (≈ 11.9 mg/mL) | 1,600 cm^−1 | 584 nm | violet | 80,000 L · mol^−1 · cm^−1 |  |  |  |  |  |  |
| CCCCc1nn(C(C)(C)C)c(O)c1N=Nc1ccc(N=Nc2ccccc2)cc1 [Yellow Compound A, reference compound] |  |  |  |  |  | 1900 cm⁻¹ | 0.076 mol/L | 25000 L/mol/cm | 417 nm |  |  |
| CCCCC(CC)CNc1ccc(NCC(CC)CCCC)c2c1C(=O)c1ccc(C(=O)OCC(C)C)cc1C2=O (stereo not drawn) [Blue Compound A, reference compound] |  |  |  |  |  | 3200 cm⁻¹ | 0.170 mol/L | 19000 L/mol/cm | 668 nm |  |  |
